“And” between values parts separate entries of the source, which are not always exact repeats. Equal values may be shown once.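 Grown in 96-well plates, cells were treated for 48 hours with each compound at five concentrations. Insufficient inhibition: endpoint recorded as highest concentration tested. Abbreviation: GI50, concentration required for 50% inhibition of growth. TGI: concentration producing complete growth inhibition.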
Test system: HCT-15 colon
Test: NCI tumour cell line growth inhibition, 48 h

SMILES | TGI | GI50 [µM]
COc1ccccc1NC(=O)C1=C(C)NC(C)=C(C(=O)Nc2ccccc2OC)C1c1ccco1 | > 100 µM | 
Cc1ccc(OC(=O)N2C/C(=C\c3ccccc3)C(=O)/C(=C/c3ccccc3)C2)cc1 | > 100 µM | 
CCOc1ccc2cc(-c3nn(CC4CCNCC4)c4ncnc(N)c34)ccc2c1 | 32.1 µM | 13.5
O=C(O)CCCCC1CCSS1 (stereo unspecified) | > 100 µM | 
O=c1cccc(Cl)[nH]1 | > 100 µM | 
COc1ccccc1C(=O)N(Cc1ccccc1)c1ccc(Cl)c(C(=O)OC(C)C)c1 | > 100 µM | 
CN1CC[C@H](c2c(O)cc(O)c3c(=O)cc(-c4ccccc4Cl)oc23)[C@H](O)C1 | > 10 µM | 
COc1ccc(C2=Nn3c(nnc3-n3nc(C)cc3C)SC2)cc1 | > 100 µM | 0.05
COc1cc(-c2nn(-c3cccc(NC(=O)CCNc4ccc(N5CCOCC5)cc4)c3)cc2-c2ccncc2)ccc1Cl | > 100 µM | 2.35
COc1ccc(C)cc1NC(=S)C#N | > 100 µM | 
COc1cccc(-c2nc3sccn3c2-c2ccnc(NCCCNS(=O)(=O)c3ccccc3)c2)c1 | > 100 µM | 3.02
CCCCCC[C@H]1C(=O)O[C@H](C)[C@H](NC(=O)c2cccc(NC=O)c2OC)C(=O)O[C@@H](C)[C@@H]1OC(=O)CCC (tested in a mixture with another compound) | 33.3 µM | 11.1
CC1OC(OC2C(O)C(O)C(O)C(O)C2O)C(N)CC1N=C(N)C(=O)O (stereo unspecified) | > 100 µM | 
C=CC(=O)Nc1cc2c(Nc3ccc(F)c(Cl)c3)ncnc2cc1C#CC(C)(C)N1CCN(C)CC1 | 5.11 µM | 1.68
NCCCN=c1ccc2c3c1c(O)c1c(O)ccc(=O)c1c3[nH]n2CCNCCO | 25 µM and 112 µM | 1.4

Test system: PC-3 prostate
Test: NCI tumour cell line growth inhibition, 48 h

SMILES | GI50 [µM] | TGI
CCOC1Oc2ccc(C)cc2C(=O)/C1=C\Nc1ccc(S(N)(=O)=O)cc1 (stereo unspecified) | 16.6 | > 50 µM
Cc1cc(NN=C(c2ccc(O)cc2)c2ccc(O)cc2)c([N+](=O)[O-])cc1[N+](=O)[O-] | 3.23 | 
COc1ccc(-c2c(N)noc2-c2cc(OC)c3c(c2)OCCO3)cc1 | < 0.0157 | > 40.7 µM
Cc1nc2ccccc2c(=O)n1/N=C(\N=Nc1cc(Cl)ccc1Cl)c1ccccc1 |  | > 100 µM
Nc1ccccc1C#Cc1ccccc1C#Cc1cccs1 | 13.8 | 33 µM
COc1ccc(-c2cc(/C=C/C(=O)c3ccc(N)cc3)[nH]n2)cc1 | 2.42 | 10.1 µM
O=c1[nH]cnc2n[nH]nc12 | 5.99 | > 100 µM
CCOC(=O)c1c(NC(=O)c2ccc(Cl)cc2)sc2c(CN(C)C)c(O)ccc12 | 8.44 | 37.3 µM
OCC(O)C(O)C(O)C(O)c1nnc2c(-c3ccccc3)nc3ccccc3n12 (stereo unspecified) | 43.2 | > 100 µM
N#Cc1cc(S(=O)(=O)Nc2nc3cc(Cl)ccc3o2)c(SCc2ccccc2)cc1Cl | 15.1 | 28.3 µM
CC1(C)C2CCC13C(=O)C1OC3(C2)C2C(=O)c3c(ccc4c3ccc3ccccc34)C(=O)C12 (stereo unspecified) | > 66.5 | > 100 µM
C#C[C@]1(O)CC[C@H]2[C@@H]3CC=C4c5nc(N)sc5CC[C@]4(C)[C@H]3CC[C@@]21C | 3.66 | 19.7 µM
CCOC(=O)c1c(CN2CCN(C)CC2)nc2ccc(Cl)cc2c1-c1ccccc1 | 8.83 | 24.8 µM
COc1ccccc1NC(=O)C1=C(C)NC(C)=C(C(=O)Nc2ccccc2OC)C1c1ccco1 |  | > 100 µM
Cc1ccc(OC(=O)N2C/C(=C\c3ccccc3)C(=O)/C(=C/c3ccccc3)C2)cc1 |  | > 100 µM
CCOc1ccc2cc(-c3nn(CC4CCNCC4)c4ncnc(N)c34)ccc2c1 | 15.5 | 41.9 µM
O=C(O)CCCCC1CCSS1 (stereo unspecified) |  | > 100 µM
O=c1cccc(Cl)[nH]1 |  | > 100 µM
COc1ccccc1C(=O)N(Cc1ccccc1)c1ccc(Cl)c(C(=O)OC(C)C)c1 |  | 75.3 µM
CN1CC[C@H](c2c(O)cc(O)c3c(=O)cc(-c4ccccc4Cl)oc23)[C@H](O)C1 | 0.0776 | > 2.59 µM
COc1ccc(C2=Nn3c(nnc3-n3nc(C)cc3C)SC2)cc1 | 0.0453 | > 100 µM
COc1cc(-c2nn(-c3cccc(NC(=O)CCNc4ccc(N5CCOCC5)cc4)c3)cc2-c2ccncc2)ccc1Cl | 2.8 | 31.4 µM
COc1ccc(C)cc1NC(=S)C#N |  | > 100 µM
COc1cccc(-c2nc3sccn3c2-c2ccnc(NCCCNS(=O)(=O)c3ccccc3)c2)c1 | 1.97 | 6.3 µM
CCCCCC[C@H]1C(=O)O[C@H](C)[C@H](NC(=O)c2cccc(NC=O)c2OC)C(=O)O[C@@H](C)[C@@H]1OC(=O)CCC (tested in a mixture with another compound) | 6.23 | 26.7 µM
CC1OC(OC2C(O)C(O)C(O)C(O)C2O)C(N)CC1N=C(N)C(=O)O (stereo unspecified) |  | > 100 µM
C=CC(=O)Nc1cc2c(Nc3ccc(F)c(Cl)c3)ncnc2cc1C#CC(C)(C)N1CCN(C)CC1 | 1.93 | 5.31 µM
NCCCN=c1ccc2c3c1c(O)c1c(O)ccc(=O)c1c3[nH]n2CCNCCO | 5.08 | 15.6 µM and 68 µM

Test system: M14 melanoma
Test: NCI tumour cell line growth inhibition, 48 h

SMILES | GI50 [µM] | TGI
CCOC1Oc2ccc(C)cc2C(=O)/C1=C\Nc1ccc(S(N)(=O)=O)cc1 (stereo unspecified) | 9.32 | 21.5 µM
Cc1cc(NN=C(c2ccc(O)cc2)c2ccc(O)cc2)c([N+](=O)[O-])cc1[N+](=O)[O-] | 4.5 | 21.1 µM
COc1ccc(-c2c(N)noc2-c2cc(OC)c3c(c2)OCCO3)cc1 | < 0.01 | 0.048 µM
Cc1nc2ccccc2c(=O)n1/N=C(\N=Nc1cc(Cl)ccc1Cl)c1ccccc1 |  | > 100 µM
Nc1ccccc1C#Cc1ccccc1C#Cc1cccs1 | 17.4 | 34.1 µM
COc1ccc(-c2cc(/C=C/C(=O)c3ccc(N)cc3)[nH]n2)cc1 | 2.67 | 6.54 µM
O=c1[nH]cnc2n[nH]nc12 |  | 30.8 µM
CCOC(=O)c1c(NC(=O)c2ccc(Cl)cc2)sc2c(CN(C)C)c(O)ccc12 | 2.24 | 5.87 µM
OCC(O)C(O)C(O)C(O)c1nnc2c(-c3ccccc3)nc3ccccc3n12 (stereo unspecified) | > 100 | > 100 µM
N#Cc1cc(S(=O)(=O)Nc2nc3cc(Cl)ccc3o2)c(SCc2ccccc2)cc1Cl | 12.6 | 25.1 µM
CC1(C)C2CCC13C(=O)C1OC3(C2)C2C(=O)c3c(ccc4c3ccc3ccccc34)C(=O)C12 (stereo unspecified) | > 100 | > 100 µM
C#C[C@]1(O)CC[C@H]2[C@@H]3CC=C4c5nc(N)sc5CC[C@]4(C)[C@H]3CC[C@@]21C | 2.75 | 7.83 µM
CCOC(=O)c1c(CN2CCN(C)CC2)nc2ccc(Cl)cc2c1-c1ccccc1 | 1.91 | 3.78 µM
COc1ccccc1NC(=O)C1=C(C)NC(C)=C(C(=O)Nc2ccccc2OC)C1c1ccco1 |  | 31.9 µM
Cc1ccc(OC(=O)N2C/C(=C\c3ccccc3)C(=O)/C(=C/c3ccccc3)C2)cc1 |  | 21.6 µM
CCOc1ccc2cc(-c3nn(CC4CCNCC4)c4ncnc(N)c34)ccc2c1 | 14.1 | 29.3 µM
O=C(O)CCCCC1CCSS1 (stereo unspecified) |  | > 100 µM
O=c1cccc(Cl)[nH]1 |  | > 100 µM
COc1ccccc1C(=O)N(Cc1ccccc1)c1ccc(Cl)c(C(=O)OC(C)C)c1 |  | > 100 µM
CN1CC[C@H](c2c(O)cc(O)c3c(=O)cc(-c4ccccc4Cl)oc23)[C@H](O)C1 | 0.0696 | 0.293 µM
COc1ccc(C2=Nn3c(nnc3-n3nc(C)cc3C)SC2)cc1 | 0.0626 | > 100 µM
COc1cc(-c2nn(-c3cccc(NC(=O)CCNc4ccc(N5CCOCC5)cc4)c3)cc2-c2ccncc2)ccc1Cl | 2.58 | 10.5 µM
COc1ccc(C)cc1NC(=S)C#N |  | > 100 µM
COc1cccc(-c2nc3sccn3c2-c2ccnc(NCCCNS(=O)(=O)c3ccccc3)c2)c1 | 3.36 | > 100 µM
CCCCCC[C@H]1C(=O)O[C@H](C)[C@H](NC(=O)c2cccc(NC=O)c2OC)C(=O)O[C@@H](C)[C@@H]1OC(=O)CCC (tested in a mixture with another compound) | 16 | 38.3 µM
CC1OC(OC2C(O)C(O)C(O)C(O)C2O)C(N)CC1N=C(N)C(=O)O (stereo unspecified) |  | > 100 µM
C=CC(=O)Nc1cc2c(Nc3ccc(F)c(Cl)c3)ncnc2cc1C#CC(C)(C)N1CCN(C)CC1 | 2.56 | 5.71 µM
NCCCN=c1ccc2c3c1c(O)c1c(O)ccc(=O)c1c3[nH]n2CCNCCO | 3.67 | 14.2 µM and 28 µM

Source: PubChem BioAssay (NCI)
